Where a SMILES comes first, the peptide text is derived from it. [ ]: non-standard residue; d: D form. dPhe(4-Cl) = N[C@H](Cc1ccc(Cl)cc1)C(=O)O; d2Nal = N[C@H](Cc1ccc2ccccc2c1)C(=O)O; dCit = NC(=O)NCCC[C@@H](N)C(=O)O; d3Pal = N[C@H](Cc1cccnc1)C(=O)O
Test system: patients undergoing COS/ART
Experiment: Phase II clinical trial of Cetrorelix in controlled ovarian stimulation/superovulation for assisted reproduction (COS/ART)
Assay type: in vivo, human
Conditions: for premature LH surge: s.c., patients undergoing COS/ART
Method: The results of a phase II clinical trial are shown in Table I. A total of 235 patients were treated. […] During multiple dosing, the mean days of Cetrorelix application is 6 days. 25 babies were born by the end of May 1996 (7 following multiple doses; 18 following single/dual doses). […] [table] 238 patients were treated with Cetrorelix by subcutaneous injection of Cetrorelix […]-Lyophilisat. 134 patients were treated with multiple doses and 104 patients with single or dual doses. The multiple doses are 0.25 mg/day or higher. The single dose was 3 mg or higher. […] Multiple doses were applied for 3 to a maximum of 10 days dependent on follicular development.

[1] = multiple dose, dose/day, phase II dose finding

CC(=O)N[C@H](Cc1ccc2ccccc2c1)C(=O)N[C@H](Cc1ccc(Cl)cc1)C(=O)N[C@H](Cc1cccnc1)C(=O)N[C@@H](CO)C(=O)N[C@@H](Cc1ccc(O)cc1)C(=O)N[C@H](CCCNC(N)=O)C(=O)N[C@@H](CC(C)C)C(=O)N[C@@H](CCCNC(=N)N)C(=O)N1CCC[C@H]1C(=O)N[C@H](C)C(N)=O [Cetrorelix] (Ac-[d2Nal][dPhe(4-Cl)][d3Pal]SY[dCit]LRP[dA]-NH2)
premature LH surge (FIG. 1, time variation of hormonal levels) (FIG. 1): absolute prevention of any premature LH surge
pregnancies obtained (number) (all phase II patients, both regimens): 71
babies born (number) (by the end of May 1996, all patients): 25
babies born (number) (by the end of May 1996, following multiple doses): 7
babies born (number) (by the end of May 1996, following single/dual doses): 18
babies born (number) (following multiple doses): 15
babies born (number) (following single/dual doses): 29
pregnancies obtained (number) (multiple dose regimen, of 134 patients): 38
minimal effective dose [1]: 0.25 min. effect. dose mg
no effect dose [1]: 0.10 no effect. dose mg
premature LH surge (multiple doses of 0.25 mg/day or higher): No premature LH surge
premature LH surge (single dose of 3 mg or higher): No premature LH surge
duration of effect to prevent a premature LH surge (single dose regimen (one single injection of 3 mg)): up to 6.5 days
pregnancies obtained (number) (single/dual dosage regimen, of 104 patients): 33
